# Experimental data published in ChEMBL document CHEMBL1133670 (J Med Chem, 2000).
# Experiments:
# NIH3T3 = assay: cells; details: Mus musculus
# Description: Inhibition of anchorage independent growth of H-ras transformed NIH3T3 cells in Soft Agar
# [1] = molecular target: T1, Protein farnesyltransferase (Rattus norvegicus) (UniProt Q04631+Q02293); assay: Percent phenotypic reversion of H-ras transformed Rat-1 cells at 1 uM; type: functional, cell-based
# Mus musculus [2] = assay: In vivo antitumor activity (log cell kill, LCK) by subcutaneous implantation of HCT116 tumors followed by oral administration at an optimal dose of 700 mg/kg in expt. 1; type: functional
# [3] = molecular target: Protein farnesyltransferase (Homo sapiens, UniProt P49354+P49356); assay: Inhibition of purified recombinant human farnesyltransferase (FT)
# Mus musculus [4] = species: Mus musculus; assay: Increase in lifespan reflected by relative median survival time of treated versus control groups expressed as maximum % T/C; type: functional
# [5] = molecular target: T1, Protein farnesyltransferase (Rattus norvegicus); assay: Percent phenotypic reversion of H-ras transformed Rat-1 cells at 5 uM; type: functional, cell-based
# Mus musculus [6] = assay: In vivo antitumor activity (log cell kill, LCK) by subcutaneous implantation of HCT116 tumors followed by oral administration at an optimal dose of 600 mg/kg in expt. 2; type: functional
# [7] = molecular target: T1, Protein farnesyltransferase (Rattus norvegicus); assay: Percent phenotypic reversion of H-ras transformed Rat-1 cells at 10 uM; type: functional, cell-based
# [8] = Oral bioavailability, based on dose-normalized AUC values in BALB/c mice; type: ADME, organism-based; details: mouse, in vivo
# [9] = Half-life of compound in Balb/c mice following an oral dose of 90 mg/kg; details: Balb/c mouse, in vivo
# Mus musculus [10] = assay: In vivo antitumor activity (log cell kill, LCK) by subcutaneous implantation of HCT116 tumors followed by oral administration at an optimal dose of 600 mg/kg in expt. 5; type: functional
# Mus musculus [11] = assay: In vivo antitumor activity (log cell kill, LCK) by subcutaneous implantation of HCT116 tumors followed by oral administration at an optimal dose of 600 mg/kg in mice
# Mus musculus [12] = assay: In vivo antitumor activity (log cell kill, LCK) by subcutaneous implantation of HCT116 tumors followed by oral administration at an optimal dose of 600 mg/kg in expt. 3; type: functional
# [13] = Clearance in rats following intravenous dose of 50 mg/kg; details: rat, in vivo
# [14] = Half-life of compound in rats following intravenous dose of 50 mg/kg; details: rat, in vivo
# in vivo [15] = details: rat, po, 50 mg/kg
# Description: Oral bioavailability observed in rats at an oral dose of 50 mg/kg
# [16] = Maximum concentration observed in rats at an oral dose of 50 mg/kg; details: rat, in vivo
# in vivo [17] = details: rat, iv, 50 mg/kg
# Description: Volume of distribution (Vss) in rats following intravenous dose of 50 mg/kg
# Mus musculus [18] = assay: In vivo antitumor activity (log cell kill, LCK) by subcutaneous implantation of HCT116 tumors followed by oral administration at an optimal dose of 600 mg/kg in expt. 4; type: functional
Reversion [1] [%],IC50 [3] [nM],Compound,EC50 (NIH3T3) [nM],further results
,30,CS(=O)(=O)N1Cc2cc(Br)ccc2N(Cc2cnc[nH]2)CC1Cc1ccccc1 (stereo not given),,
,1.77,N#Cc1ccc2c(c1)CN(S(=O)(=O)c1ccccc1)[C@H](Cc1ccccc1)CN2Cc1cnc[nH]1,10,
,86,CS(=O)(=O)N1Cc2cc(Br)ccc2N(Cc2cnc[nH]2)CC1CNC(=O)c1ccccc1 (stereo not given),,
,45,CS(=O)(=O)N1Cc2cc(Br)ccc2N(Cc2cnc[nH]2)CC1CCc1ccccc1 (stereo not given),,
70,18,CS(=O)(=O)N1Cc2cc(Br)ccc2N(Cc2c[nH]cn2)CC1Cc1ccccc1Cl (stereo not given),460,
,8.75,CC(=O)N1Cc2cc(C#N)ccc2N(Cc2c[nH]cn2)C[C@H]1Cc1ccccc1,100,
5,,CC(=O)N1Cc2cc(Br)ccc2N(Cc2c[nH]cn2)CC1Cc1cccc2ccccc12 (stereo not given),,
,,O=C(c1cccc2ccccc12)N1CCN(Cc2c[nH]cn2)c2ccc(Br)cc2C1,,Reversion [5]: 5%
,54.5,CS(=O)(=O)N1Cc2cc(-c3ccccc3)ccc2N(Cc2cnc[nH]2)CC1Cc1ccccc1 (stereo not given),,
10,,CS(=O)(=O)N1Cc2cc(-c3cccnc3)ccc2N(Cc2c[nH]cn2)CC1Cc1ccccc1 (stereo not given),,
,1100,CC1CN(Cc2c[nH]cn2)c2ccccc2CN1C(=O)c1cccc2ccccc12 (stereo not given),,Reversion [7]: 0%
,383,CS(=O)(=O)N1Cc2cc(-c3ccccc3)ccc2N(Cc2cnc[nH]2)C[C@H]1Cc1ccncc1,,
70,,CS(=O)(=O)N1Cc2cc(-c3ccccc3)ccc2N(Cc2c[nH]cn2)CC1Cc1ccccc1 (stereo not given),530,
,10.7,CS(=O)(=O)N1Cc2cc(Br)ccc2N(Cc2cnc[nH]2)C[C@H]1Cc1ccccc1,,bioavailability [8]: 40%; half-life [9]: 1.2 h
,1.77,CCCS(=O)(=O)N1Cc2cc(C#N)ccc2N(Cc2cnc[nH]2)C[C@H]1Cc1ccccc1,10,
,437,CS(=O)(=O)N1Cc2cc(Br)ccc2N(Cc2cnc[nH]2)C[C@@H]1Cc1ccccc1,,

Reversion [1] [%],IC50 [3] [nM],Compound,EC50 (NIH3T3) [nM],further results
,24,CS(=O)(=O)N1Cc2cc(Br)ccc2N(Cc2c[nH]cn2)CC1Cc1cccc(Cl)c1 (stereo not given),,Reversion [7]: 70%
0,,CS(=O)(=O)N1Cc2cc(Br)ccc2N(Cc2c[nH]cn2)CC1CNC(=O)c1ccccc1 (stereo not given),,
,276,O=C(c1cccc2ccccc12)N1Cc2ccccc2N(Cc2c[nH]cn2)CC1Cc1ccccc1 (stereo not given),,Reversion [7]: 70%
,,O=C(c1cccc2ccccc12)N1CCN(Cc2c[nH]cn2)c2ccccc2C1,,Reversion [7]: 0%
50,22,CCOC(=O)N1Cc2cc(C#N)ccc2N(Cc2c[nH]cn2)C[C@H]1Cc1ccccc1,300,
,,N#Cc1ccc2c(c1)CN(S(=O)(=O)c1cccs1)[C@H](Cc1ccccc1)CN2Cc1cnc[nH]1 [BMS-214662],,clearance [13]: 5.7 mL/min/kg; half-life [14]: 2.4 h; bioavailability (in vivo [15]): 56%; Cmax [16]: 20 µM; Vd (in vivo [17]): 1.4 L/kg
0,101,COc1ccc(CC2CN(Cc3c[nH]cn3)c3ccc(Br)cc3CN2S(C)(=O)=O)cc1 (stereo not given),,
,7.9,CS(=O)(=O)N1Cc2cc(-c3cccnc3)ccc2N(Cc2cnc[nH]2)CC1Cc1ccccc1 (stereo not given),,
,23.5,CS(=O)(=O)N1Cc2cc(Br)ccc2N(Cc2cnc[nH]2)C[C@H]1CC1CCCCC1,,
,,CS(=O)(=O)N1Cc2cc(Br)ccc2N(Cc2c[nH]cn2)C[C@H]1CC1CCCCC1,,Reversion [7]: 90%
30,60,CC(=O)N1Cc2cc(Br)ccc2N(Cc2c[nH]cn2)CC1Cc1ccccc1 (stereo not given),600,
40,17,CN(C)C(=O)N1Cc2cc(C#N)ccc2N(Cc2c[nH]cn2)C[C@H]1Cc1ccccc1,,
,228,O=C(c1cccc2ccccc12)N1CCN(Cc2cnc[nH]2)c2ccc(Br)cc2C1,,
70,,CS(=O)(=O)N1Cc2cc(Br)ccc2N(Cc2c[nH]cn2)CC1CCc1ccccc1 (stereo not given),400,
,1300,CC(=O)N1Cc2ccccc2N(Cc2c[nH]cn2)CC1Cc1ccccc1 (stereo not given),,
,54.5,CC(=O)N1Cc2cc(Br)ccc2N(Cc2cnc[nH]2)CC1Cc1cccc2ccccc12 (stereo not given),,

Compound,Reversion [1] [%],IC50 [3] [nM],EC50 (NIH3T3) [nM],further results
CS(=O)(=O)N1Cc2cc(Br)ccc2N(Cc2c[nH]cn2)C[C@H]1Cc1ccccc1,70,,290,LCK (Mus musculus [2]): 1.5
CS(=O)(=O)N1Cc2cc(Br)ccc2N(Cc2c[nH]cn2)CC1Cc1ccccc1 (stereo not given),80,,270,T/C (Mus musculus [4]): 138%
CS(=O)(=O)N1Cc2cc(-c3ccncc3)ccc2N(Cc2c[nH]cn2)C[C@H]1Cc1ccccc1,,16,40,LCK (Mus musculus [6]): 0.2
CN(C)CCS(=O)(=O)N1Cc2cc(C#N)ccc2N(Cc2c[nH]cn2)C[C@H]1Cc1ccccc1,,1.53,30,LCK (Mus musculus [10]): 1
CS(=O)(=O)N1Cc2cc(-c3ccccc3)ccc2N(Cc2c[nH]cn2)C[C@H]1Cc1cccnc1,,5.95,15,LCK (Mus musculus [11]): 0.1
CS(=O)(=O)N1Cc2cc(C#N)ccc2N(Cc2c[nH]cn2)C[C@H]1Cc1ccccc1,,3,13,LCK (Mus musculus [12]): 0.6
CN(C)S(=O)(=O)N1Cc2cc(C#N)ccc2N(Cc2c[nH]cn2)C[C@H]1Cc1ccccc1,,2.85,50,LCK (Mus musculus [18]): 0.2
